Results on eight compounds are retold here after article PMC6478789, “A chemical toolbox for the study of bromodomains and epigenetic signaling” (Nature Communications, 2019).

Holding throughout (test): Methyl transferase scintillation proximity assay
Assay type in all cases: biochemical
Conditions in all cases: average of two measurements; for inhibition at 10 µM: read-out: MTases Inhibition (%)

For one assay, the target named is T1, PRC2-EZH1 (Homo sapiens, UniProt Q92800).
T1 construct: purchased DiscoverX BROMOscan (bromodomains); SGC in-house methyltransferase panel
T1 sequence (Q92800 whole entry): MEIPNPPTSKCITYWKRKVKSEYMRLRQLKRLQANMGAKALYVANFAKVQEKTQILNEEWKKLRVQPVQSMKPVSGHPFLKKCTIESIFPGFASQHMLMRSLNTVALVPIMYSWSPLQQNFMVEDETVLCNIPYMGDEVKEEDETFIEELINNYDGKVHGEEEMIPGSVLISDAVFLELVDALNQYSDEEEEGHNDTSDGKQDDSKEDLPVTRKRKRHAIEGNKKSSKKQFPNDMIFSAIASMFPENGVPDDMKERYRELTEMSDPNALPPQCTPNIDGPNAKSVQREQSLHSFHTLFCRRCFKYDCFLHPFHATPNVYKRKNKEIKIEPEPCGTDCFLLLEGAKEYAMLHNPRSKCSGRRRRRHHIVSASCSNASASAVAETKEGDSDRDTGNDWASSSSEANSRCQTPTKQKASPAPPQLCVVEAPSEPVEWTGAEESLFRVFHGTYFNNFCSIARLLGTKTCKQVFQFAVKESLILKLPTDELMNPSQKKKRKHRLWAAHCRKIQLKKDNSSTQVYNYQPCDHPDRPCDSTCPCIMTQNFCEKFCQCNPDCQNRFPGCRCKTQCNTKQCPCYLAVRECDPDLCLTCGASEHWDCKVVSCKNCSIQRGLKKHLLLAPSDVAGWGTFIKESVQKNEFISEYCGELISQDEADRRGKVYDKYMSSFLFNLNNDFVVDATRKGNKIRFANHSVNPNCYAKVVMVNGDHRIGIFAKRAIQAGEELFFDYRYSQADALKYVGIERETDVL
T1 sequence (O75530 whole entry partner): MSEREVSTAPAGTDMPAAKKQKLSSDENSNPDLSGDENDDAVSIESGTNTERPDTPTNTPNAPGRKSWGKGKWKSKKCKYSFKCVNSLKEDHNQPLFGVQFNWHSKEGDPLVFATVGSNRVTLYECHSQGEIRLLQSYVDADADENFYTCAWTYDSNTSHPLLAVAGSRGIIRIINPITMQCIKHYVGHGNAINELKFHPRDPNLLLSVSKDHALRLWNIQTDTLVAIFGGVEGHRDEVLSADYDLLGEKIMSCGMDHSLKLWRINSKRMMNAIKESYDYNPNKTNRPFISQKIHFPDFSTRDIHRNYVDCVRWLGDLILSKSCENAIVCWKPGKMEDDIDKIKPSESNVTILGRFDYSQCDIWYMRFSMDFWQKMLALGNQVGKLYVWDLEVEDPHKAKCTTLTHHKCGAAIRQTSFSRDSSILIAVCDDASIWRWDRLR
T1 sequence (Q15022 whole entry partner): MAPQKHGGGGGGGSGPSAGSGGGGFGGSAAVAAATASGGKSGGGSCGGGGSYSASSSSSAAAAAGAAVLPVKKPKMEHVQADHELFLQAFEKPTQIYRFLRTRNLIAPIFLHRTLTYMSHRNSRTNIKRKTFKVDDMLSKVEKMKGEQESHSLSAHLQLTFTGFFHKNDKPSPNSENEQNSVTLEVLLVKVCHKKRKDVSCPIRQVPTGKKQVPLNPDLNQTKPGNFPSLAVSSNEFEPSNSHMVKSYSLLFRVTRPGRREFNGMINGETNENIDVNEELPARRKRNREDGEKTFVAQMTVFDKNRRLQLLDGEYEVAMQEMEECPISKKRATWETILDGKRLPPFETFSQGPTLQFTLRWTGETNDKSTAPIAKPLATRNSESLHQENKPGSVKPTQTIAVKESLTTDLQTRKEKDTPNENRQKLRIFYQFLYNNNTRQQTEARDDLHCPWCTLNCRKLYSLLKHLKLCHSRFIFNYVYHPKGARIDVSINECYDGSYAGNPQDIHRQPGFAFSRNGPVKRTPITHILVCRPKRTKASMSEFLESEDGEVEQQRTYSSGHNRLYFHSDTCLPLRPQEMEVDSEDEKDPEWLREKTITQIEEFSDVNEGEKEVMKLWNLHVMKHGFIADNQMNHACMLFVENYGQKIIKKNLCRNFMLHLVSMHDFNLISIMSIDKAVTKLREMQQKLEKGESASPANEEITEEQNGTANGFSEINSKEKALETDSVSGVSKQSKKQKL
Put shortly: (§1)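 ^3H-SAM + biotinylated substrate, both ~apparent Km per enzyme. Quench: 7.5 M guanidine HCl; dilute in 20 mM Tris pH 8.0; FlashPlate capture 1 h; read CPM. No-compound = 100%, no-enzyme = 0% activity.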

A further assay deals with T2, GLP (Homo sapiens, UniProt Q9H9B1).
T2 construct: purchased DiscoverX BROMOscan (bromodomains); SGC in-house methyltransferase panel
T2 sequence (Q9H9B1 1-1298): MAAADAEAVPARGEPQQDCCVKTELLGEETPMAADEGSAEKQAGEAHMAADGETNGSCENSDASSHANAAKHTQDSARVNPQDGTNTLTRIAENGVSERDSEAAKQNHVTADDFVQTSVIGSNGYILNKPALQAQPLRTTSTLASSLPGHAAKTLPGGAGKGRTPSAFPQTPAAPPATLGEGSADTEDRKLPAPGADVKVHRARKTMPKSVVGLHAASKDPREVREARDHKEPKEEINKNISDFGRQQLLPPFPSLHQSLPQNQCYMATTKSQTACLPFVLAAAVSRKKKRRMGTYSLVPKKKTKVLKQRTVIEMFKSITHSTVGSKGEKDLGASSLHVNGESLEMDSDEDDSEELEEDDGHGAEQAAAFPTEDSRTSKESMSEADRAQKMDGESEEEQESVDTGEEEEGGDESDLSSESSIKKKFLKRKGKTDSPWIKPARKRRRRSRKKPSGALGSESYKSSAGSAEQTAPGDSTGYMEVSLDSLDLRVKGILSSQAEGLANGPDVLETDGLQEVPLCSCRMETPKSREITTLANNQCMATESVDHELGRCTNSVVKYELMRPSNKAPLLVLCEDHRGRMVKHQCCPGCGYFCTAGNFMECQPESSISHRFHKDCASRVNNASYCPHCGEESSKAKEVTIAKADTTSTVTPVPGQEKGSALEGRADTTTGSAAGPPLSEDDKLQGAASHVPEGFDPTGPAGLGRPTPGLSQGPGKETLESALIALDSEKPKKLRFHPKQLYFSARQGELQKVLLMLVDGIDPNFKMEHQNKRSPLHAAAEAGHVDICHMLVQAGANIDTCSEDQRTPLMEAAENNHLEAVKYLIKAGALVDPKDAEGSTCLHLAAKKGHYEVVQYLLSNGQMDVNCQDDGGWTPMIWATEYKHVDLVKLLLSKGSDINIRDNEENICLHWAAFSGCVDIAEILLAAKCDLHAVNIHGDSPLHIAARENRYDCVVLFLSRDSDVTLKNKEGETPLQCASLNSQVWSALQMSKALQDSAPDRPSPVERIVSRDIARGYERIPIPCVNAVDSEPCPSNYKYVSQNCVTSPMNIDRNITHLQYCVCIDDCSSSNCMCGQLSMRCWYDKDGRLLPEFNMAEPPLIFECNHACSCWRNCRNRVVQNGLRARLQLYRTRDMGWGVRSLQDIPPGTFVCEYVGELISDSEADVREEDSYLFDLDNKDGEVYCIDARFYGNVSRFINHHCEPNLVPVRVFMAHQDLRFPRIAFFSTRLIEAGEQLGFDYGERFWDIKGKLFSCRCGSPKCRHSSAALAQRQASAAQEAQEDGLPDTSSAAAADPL
An outline of the steps:
as §1

Another assay concerns the target T3, PRMT9 (Homo sapiens, UniProt Q6P2P2).
T3 construct: purchased DiscoverX BROMOscan (bromodomains); SGC in-house methyltransferase panel
T3 sequence (Q6P2P2 1-845): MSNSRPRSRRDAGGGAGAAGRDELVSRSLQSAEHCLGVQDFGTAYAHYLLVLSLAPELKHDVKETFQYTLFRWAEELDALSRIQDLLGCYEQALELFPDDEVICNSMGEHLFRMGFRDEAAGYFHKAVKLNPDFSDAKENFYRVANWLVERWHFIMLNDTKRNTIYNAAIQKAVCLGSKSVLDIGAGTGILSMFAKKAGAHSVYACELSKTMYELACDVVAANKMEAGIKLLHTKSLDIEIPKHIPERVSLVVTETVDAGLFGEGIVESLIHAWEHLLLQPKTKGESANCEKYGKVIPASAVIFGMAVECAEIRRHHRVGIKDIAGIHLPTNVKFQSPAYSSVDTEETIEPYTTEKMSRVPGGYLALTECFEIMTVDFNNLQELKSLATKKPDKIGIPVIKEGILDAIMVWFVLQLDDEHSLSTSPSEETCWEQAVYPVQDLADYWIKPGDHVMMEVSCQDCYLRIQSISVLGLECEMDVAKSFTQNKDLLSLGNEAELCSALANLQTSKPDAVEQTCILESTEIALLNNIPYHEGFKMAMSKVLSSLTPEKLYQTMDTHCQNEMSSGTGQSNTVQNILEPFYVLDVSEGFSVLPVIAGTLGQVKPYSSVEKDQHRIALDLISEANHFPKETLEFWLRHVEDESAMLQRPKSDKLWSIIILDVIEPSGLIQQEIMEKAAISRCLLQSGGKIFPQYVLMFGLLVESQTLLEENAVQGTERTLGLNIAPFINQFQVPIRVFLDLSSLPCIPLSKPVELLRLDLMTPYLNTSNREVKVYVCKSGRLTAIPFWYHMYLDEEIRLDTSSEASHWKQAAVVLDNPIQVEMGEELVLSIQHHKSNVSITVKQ
Put shortly: as §1

Another assay has as its target T4, MLL3 (pentameric) (Homo sapiens, UniProt Q8NEZ4).
T4 construct: purchased DiscoverX BROMOscan (bromodomains); SGC in-house methyltransferase panel
An outline of the steps:
as §1

A further assay addresses T5, SETD7 (Homo sapiens, UniProt Q8WTS6).
T5 construct: purchased DiscoverX BROMOscan (bromodomains); SGC in-house methyltransferase panel
T5 sequence (Q8WTS6 1-366): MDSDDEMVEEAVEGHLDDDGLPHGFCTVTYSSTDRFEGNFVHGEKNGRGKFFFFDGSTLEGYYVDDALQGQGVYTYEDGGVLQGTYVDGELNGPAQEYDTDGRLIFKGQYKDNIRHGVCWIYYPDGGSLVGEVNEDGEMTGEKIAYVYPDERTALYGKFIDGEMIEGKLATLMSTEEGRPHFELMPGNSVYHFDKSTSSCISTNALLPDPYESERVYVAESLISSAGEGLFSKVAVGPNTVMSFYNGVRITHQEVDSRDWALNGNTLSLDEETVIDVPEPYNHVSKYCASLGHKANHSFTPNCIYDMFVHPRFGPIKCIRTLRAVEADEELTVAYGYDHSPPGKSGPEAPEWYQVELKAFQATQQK
Put shortly: as §1

A further assay has as its target T6, PRMT8 (Homo sapiens, UniProt Q9NR22).
T6 construct: purchased DiscoverX BROMOscan (bromodomains); SGC in-house methyltransferase panel
Put shortly: as §1

T6 sequence (Q9NR22 whole entry): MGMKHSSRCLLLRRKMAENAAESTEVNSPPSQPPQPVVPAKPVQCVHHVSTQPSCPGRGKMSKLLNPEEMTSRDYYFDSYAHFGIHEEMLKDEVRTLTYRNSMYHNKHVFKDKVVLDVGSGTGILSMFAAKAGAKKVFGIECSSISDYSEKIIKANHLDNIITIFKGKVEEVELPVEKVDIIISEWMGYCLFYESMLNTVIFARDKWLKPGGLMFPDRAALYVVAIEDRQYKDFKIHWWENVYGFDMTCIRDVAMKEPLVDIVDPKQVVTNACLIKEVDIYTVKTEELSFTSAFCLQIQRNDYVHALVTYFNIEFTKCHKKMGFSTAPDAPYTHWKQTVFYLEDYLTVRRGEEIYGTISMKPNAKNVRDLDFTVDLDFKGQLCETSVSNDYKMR

As for `Cc1c(NC(=O)c2cc(C(N)=O)nc3cc(F)ccc23)c(C(F)(F)F)nn1Cc1ccc(C(C)(C)C)cc1` [BAY-588], the inhibition at 10 µM on PRC2-EZH1 worked out at 3%; at GLP, 2%; at PRMT9, 3%; at MLL3 (pentameric), 7%; on SETD7 it was 10%; on PRMT8, 3%.
As for `COc1cc(Cl)c(C(=O)N[C@@H](CN[C@H]2CC[C@@H](N)CC2)Cc2ccc(C#N)cc2)cc1-c1ccc(CN[C@H](C)c2ccc(C)cc2)o1` [BAY-850], the inhibition at 10 µM was 19% at PRC2-EZH1; 2% at GLP; 15% on PRMT9; 0% at MLL3 (pentameric); 11% on SETD7; 4% on PRMT8.
In the case of `Cc1c(NC(=O)c2cc(C(N)=O)nc3cc(F)ccc23)c(C(F)(F)F)nn1Cc1ccc(C#N)cc1` [BAY-876], the inhibition at 10 µM on PRC2-EZH1 is -4%; at GLP, 0%; at PRMT9, 12%; on MLL3 (pentameric), 0%; on SETD7, 10%; on PRMT8, 9%.
For the compound `CN1C[C@H](Nc2cnn(C)c(=O)c2Br)C[C@H](c2ccccc2)C1` [GSK4027], the inhibition at 10 µM at PRC2-EZH1 was -1%; at GLP, 2%; on PRMT9, 8%; on MLL3 (pentameric), 2%; on SETD7 it was 12%; on PRMT8, 15%.
In the case of `COc1ccccc1C(=O)Nc1cc2c(cc1N1CCNC[C@H]1C)n(C)c(=O)n2C` [GSK6853], the “MTases Inhibition (%)” value is given as 1% on PRC2-EZH1 (10µM); 3% on GLP (10µM); 12% on PRMT9 (10µM); 2% on MLL3 (pentameric) (10µM); 7% on SETD7 (10µM); 3% on PRMT8 (10µM).
For the compound `CO[C@H]1CNC[C@@H](OCC2CCC(F)(F)CC2)[C@@H]1Nc1ncc(-c2cncc(C)c2)c2cc(C)c(=O)[nH]c12` [GSK8814], the inhibition at 10 µM at PRC2-EZH1 stood at 1%; on GLP, 2%; on PRMT9 it was 3%; on MLL3 (pentameric) it was 0%; on SETD7, 7%; on PRMT8, 5%.
Consider `Cc1nnc2c3ccccc3c(N[C@@H](C)[C@H](c3ccccc3)N(C)C)nn12` [L-Moses], for which the inhibition at 10 µM was found to be 5% at PRC2-EZH1; 2% on GLP; 13% at PRMT9; 1% on MLL3 (pentameric); 7% at SETD7; 5% on PRMT8.
With `CN(C)CCCOc1ccc(-c2cc(NCCCn3cccn3)nc(S(C)(=O)=O)n2)cc1` [TP-238], the inhibition at 10 µM is 6% at PRC2-EZH1; 1% at GLP; 7% on PRMT9; -3% at MLL3 (pentameric); -1% at SETD7; 3% at PRMT8.
